From PubChem BioAssay AID2060892 (Molecular Pharmacology Branch, DTP, NCI, 2025)
Where “and” joins values, the source holds several entries; their conditions need not be identical. Equal entries are not always repeated.

Test system: HOP-62 complex spheroids with HUVEC/MSC, viability
Test: Anticancer human tumor HOP-62 cell line growth inhibition [RAS];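 further: spheroids exposed to agents for seven days before readout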;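 on viability, T/C: 100% = DMSO vehicle control viability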
Conditions: for viability, T/C: stronger effect = lower value
Description: RAS pathway inhibitors in Combinations in Complex Spheroids
A high-throughput screen of multi-cell type tumor spheroids was designed to identify active combinations of RAS pathway inhibitors and targeted small molecules. Complex spheroids include a stromal component modeled by human endothelial cells (HUVEC) and fibroblasts modeled by human mesenchymal stem cells (MSCs). The concentration ranges selected for each drug and investigational agent were based upon clinically achievable concentrations if the clinical Cmax of the agent was known.
Compounds. The drugs and investigational agents: abemaciclib (NSC768073), cobimetinib (NSC768068), divarasib (GDC6063, NSC841802), docetaxel (NSC628503), GDC-1971 (RLY-1971, NSC841576), gemcitabine (NSC613327), inavolisib (NSC800729), ipatasertib (NSC767898), KB-0742 (NSC834161), MRTX-1133 (NSC836407), osimertinib (NSC779217), RMC-4630 (NSC839698), RMC-6236 (NSC851965), RMC-6291 (NSC852671), Ro-3306 (NSC812927), sapanisertib (NSC764658), SN-38 (NSC673596), staurosporine (NSC755774), SY5609 (NSC837396), and tovorafenib (DAY101, NSC766906), were obtained from the National Cancer Institute (NCI) Developmental Therapeutics Program Chemical Repository. The FDA-approved anticancer drug set is available from the NCI Developmental Therapeutics Program. […] The stock solutions were prepared in dimethyl sulfoxide (DMSO, Sigma-Aldrich, St. Louis, MO, cat. D2650) at 800-fold the tested concentration and stored at -70 degrees C prior to their use. All drugs and investigational agents were tested over a range starting from a high concentration at or near the clinical Cmax and decreasing in half-log increments. If the clinical Cmax for an agent had not been determined, the highest concentration tested was 10 microM.
Cell Culture. All cells were maintained in an incubator at 37 degrees C and 5% CO2 with 95% humidity. The PDC lines were cultured according to standard operating procedures established by the NCI PDMR. All PDCs were thawed and cultured in Matrigel-coated flasks prepared with a working solution of 1X Ham's F-12 nutrient mix, without supplementation (Invitrogen, Waltham, MA, cat. 11765054), 100 U/mL penicillin-streptomycin (Invitrogen, cat. 15140122), and 2.5% Matrigel (Corning Inc., Corning, NY, cat. 354248) for the first three passages. The 362531-283-R-J2-PDC and 782815-120-R-J1-PDC lines were cultured in 6C/Colon 1B media, which includes advanced DMEM/F-12 (Thermo Fisher Scientific, cat. 12634028), 10 mM HEPES (Thermo Fisher Scientific, cat. 15630080), 1X GlutaMAX supplement (Thermo Fisher Scientific, cat. 35050061), 0.1 mg/mL primocin (InvivoGen, San Diego, CA, cat. ant-pm-2), 10% defined fetal bovine serum, heat inactivated (HyClone Laboratories Inc., Logan, UT, cat. SH30070.03HI), 50% L-WRN conditioned media (ATCC, cat. CRL-3276), 1.25 mM N-Acetyl-L-cysteine (Sigma-Aldrich, cat. A9165), 10 mM nicotinamide (Sigma-Aldrich, cat. N0636), 1X B-27 supplement (Thermo Fisher Scientific, cat. 17504044), 1X N-2 supplement (Thermo Fisher Scientific, cat. 17502048), 50 ng/mL human EGF (Thermo Fisher Scientific, cat. PHG0311), and 10 microM Y-27632 dihydrochloride (Tocris Bioscience, cat. 1254). The K12877-001-R-J1-PDC line was cultured in 6I media, which includes all 6C/Colon 1B media plus 10 ng/mL human FGF-10 (PeproTech, cat. 100-26), 1 ng/mL human FGF-2 (PeproTech, cat. 100-18B), 1 µM prostaglandin E2 (Tocris Bioscience, cat. 2296), […] hydrocortisone (Sigma-Aldrich, cat. H4001), and […] bovine insulin (Sigma-Aldrich, cat. I6634). The K86415-001-R-J1-PDC line was cultured in 6D media, which includes all 6C/Colon 1B media components minus the L-WRN conditioned media. The 485176-168-R4-J1-PDC was cultured in PANC media, which includes all 6C/Colon 1B media plus 100 ng/mL human FGF-10 (PeproTech, cat. 100-26), 500 nM SB-431542 (Selleckchem, cat. S1067), and 10 nM gastrin (Tocris Bioscience, cat. 3006). […]

[1] = compound alone, run of 07/09/2024

SMILES: C#Cc1c(F)ccc2cc(O)cc(-c3ncc4c(N5CC6CCC(C5)N6)nc(OCC56CCCN5CC(F)C6)nc4c3F)c12 (stereo unspecified)
- viability, T/C (compound 0.0316 µM): 107% [middle of 8 runs]
- viability, T/C (compound 0.1 µM): 113% [middle of 8 runs]
- viability, T/C (compound 0.316 µM): 109% [middle of 8 runs]
- viability, T/C (compound 1 µM): 100% [middle of 8 runs]
- viability, T/C (compound 3.16 µM): 81.1% [middle of 8 runs]
- viability, T/C (compound 10 µM): 48% [middle of 8 runs]

SMILES: C=CC(=O)N1CCN(c2nc(OCC3CCCN3C)nc3c(F)c(-c4nc(N)cc(C)c4C(F)(F)F)c(Cl)cc23)C(C)C1 (stereo unspecified)
- viability, T/C (compound 0.01 µM, compound 0.0316 µM): 66.5%
- viability, T/C (compound 0.01 µM, compound 0.1 µM): 64.5%
- viability, T/C (compound 0.01 µM, compound 0.316 µM): 71%
- viability, T/C (compound 0.01 µM, compound 1 µM): 61.3%
- viability, T/C (compound 0.0316 µM, compound 0.00316 µM): 68.3%
- viability, T/C (compound 0.0316 µM, compound 0.01 µM): 62.3%
- viability, T/C (compound 0.0316 µM, compound 0.1 µM): 66.5%
- viability, T/C (compound 0.0316 µM, compound 0.316 µM): 64%
- viability, T/C (compound 0.0316 µM, compound 1 µM): 64.2%
- viability, T/C (compound 0.0316 µM): 67.5%
- viability, T/C (compound 0.1 µM, compound 0.00316 µM): 59.4%
- viability, T/C (compound 0.1 µM, compound 0.01 µM): 63.4%
- viability, T/C (compound 0.1 µM, compound 0.0316 µM): 57.5%
- viability, T/C (compound 0.1 µM, compound 0.316 µM): 66.9%
- viability, T/C (compound 0.1 µM, compound 1 µM): 62.5%
- viability, T/C (compound 0.1 µM): 64.9%
- viability, T/C (compound 0.316 µM, compound 0.00316 µM): 69.2%
- viability, T/C (compound 0.316 µM, compound 0.01 µM): 68%
- viability, T/C (compound 0.316 µM, compound 0.0316 µM): 59.4%
- viability, T/C (compound 0.316 µM, compound 0.1 µM): 66%
- viability, T/C (compound 0.316 µM, compound 1 µM): 68%
- viability, T/C (compound 0.316 µM): 66.3%
- viability, T/C (compound 1 µM, compound 0.00316 µM): 76.3%
- viability, T/C (compound 1 µM, compound 0.01 µM): 65.6%
- viability, T/C (compound 1 µM, compound 0.0316 µM): 64%
- viability, T/C (compound 1 µM, compound 0.1 µM): 66.4%
- viability, T/C (compound 1 µM, compound 0.316 µM): 65%
- viability, T/C (compound 1 µM): 67.3% [middle of 13 runs]
- IC50 (compound alone, run of 07/15/2024): > 1 µM
- IC50 (curve of compound): > 1 µM

SMILES: C=CC(=O)Nc1cc(Nc2nccc(-c3cn(C)c4ccccc34)n2)c(OC)cc1N(C)CCN(C)C
- viability, T/C (compound 0.00316 µM): 103% [middle of 4 runs]
- viability, T/C (compound 0.01 µM): 101% [middle of 4 runs]
- viability, T/C (compound 0.0316 µM): 108% [middle of 4 runs]
- viability, T/C (compound 0.1 µM): 110% [middle of 4 runs]
- viability, T/C (compound 0.316 µM): 110% [middle of 4 runs]
- viability, T/C (compound 1 µM): 103% [middle of 4 runs]
- IC50 (curve of compound): > 1 µM

SMILES: CC(C)NCC(C(=O)N1CCN(c2ncnc3c2C(C)CC3O)CC1)c1ccc(Cl)cc1 (stereo unspecified)
- viability, T/C (compound 0.0316 µM): 105% [middle of 4 runs]
- viability, T/C (compound 0.1 µM): 105% [middle of 4 runs]
- viability, T/C (compound 0.316 µM): 98.4% [middle of 4 runs]

SMILES: CC(C)n1nc(-c2ccc3oc(N)nc3c2)c2c(N)ncnc21
- viability, T/C (compound 0.000316 µM): 105% [middle of 4 runs]
- viability, T/C (compound 0.001 µM): 97.4% [middle of 4 runs]
- viability, T/C (compound 0.00316 µM): 93.7% [middle of 4 runs]
- viability, T/C (compound 0.01 µM): 98.7% and 65.8% and 66.1%

SMILES: CC1(O)CCCC1n1c(=O)c(C(F)F)cc2cnc(NC3CCN(S(C)(=O)=O)CC3)nc21 (stereo unspecified)
- viability, T/C (compound 0.0316 µM): 100% [middle of 4 runs]
- viability, T/C (compound 10 µM): 4.01% [middle of 4 runs]

SMILES: CCC(CC)c1cc(NC2CCC(N)C2)n2nccc2n1 (stereo unspecified)
- viability, T/C (compound 0.0316 µM): 115% [middle of 4 runs]
- viability, T/C (compound 0.1 µM): 112% [middle of 4 runs]
- viability, T/C (compound 0.316 µM): 112% [middle of 4 runs]
- viability, T/C (compound 1 µM): 109% and 108% (2×) and 113%
- viability, T/C (compound 3.16 µM): 9.12% [middle of 4 runs]
- viability, T/C (compound 10 µM): 1.18% [middle of 4 runs]
- IC50 (curve of compound): 1.9 µM and 1.97 µM and 2.03 µM

SMILES: CCN1CCN(Cc2ccc(Nc3ncc(F)c(-c4cc(F)c5nc(C)n(C(C)C)c5c4)n3)nc2)CC1
- viability, T/C (compound 0.00316 µM): 103% [middle of 4 runs]
- viability, T/C (compound 0.01 µM): 104% [middle of 4 runs]
- viability, T/C (compound 0.0316 µM): 103% [middle of 4 runs]
- IC50 (curve of compound): > 1 µM

SMILES: CCc1c2c(nc3ccc(O)cc13)-c1cc3c(c(=O)n1C2)COC(=O)[C@]3(O)CC
- viability, T/C (compound 0.003 µM): 22.4% [middle of 4 runs]
- viability, T/C (compound 0.00949 µM): 10.6% [middle of 4 runs]
- viability, T/C (compound 0.03 µM): 7.82% [middle of 4 runs]
- viability, T/C (compound 0.0949 µM): 5.87% [middle of 4 runs]
- viability, T/C (compound 0.3 µM): 3.8% [middle of 4 runs]
- IC50 (curve of compound): 1.34 nM [middle of 4 runs]

SMILES: CCn1c(-c2cc(N3CCN(C)CC3)cnc2C(C)OC)c2c3cc(ccc31)-c1csc(n1)CC(NC(=O)C1CC1C)C(=O)N1CCCC(N1)C(=O)OCC(C)(C)C2 (stereo unspecified)
- viability, T/C (compound 0.000949 µM): 117% [middle of 8 runs]
- viability, T/C (compound 0.003 µM): 99.9% [middle of 7 runs]
- viability, T/C (compound 0.00949 µM): 73.3% [middle of 8 runs]
- viability, T/C (compound 0.03 µM): 52.7% [middle of 8 runs]
- viability, T/C (compound 0.0949 µM): 39.1% [middle of 8 runs]
- viability, T/C (compound 0.3 µM): 39.4% [middle of 8 runs]
- IC50 [1]: 35.9 nM [middle of 8 runs]

SMILES: CCn1c(-c2cccnc2C(C)OC)c2c3cc(ccc31)N1CCOC(CC(NC(=O)C(C(C)C)N(C)C(=O)C3(F)CCN(C(=O)C#CC(C)(C)N(C)C)CC3)C(=O)N3CCCC(N3)C(=O)OCC(C)(C)C2)C1 (stereo unspecified)
- viability, T/C (compound 0.000949 µM): 107% [middle of 8 runs]
- viability, T/C (compound 0.003 µM): 99.7% [middle of 8 runs]
- viability, T/C (compound 0.00949 µM): 90.7% [middle of 8 runs]
- viability, T/C (compound 0.03 µM): 90.4% [middle of 8 runs]
- viability, T/C (compound 0.0949 µM): 85.9% [middle of 8 runs]
- viability, T/C (compound 0.3 µM): 83.2% [middle of 8 runs]
- IC50 [1]: > 0.3 µM

SMILES: C[C@@H](NC(=O)c1ncnc(N)c1Cl)c1ncc(C(=O)Nc2cc(C(F)(F)F)c(Cl)cn2)s1
- viability, T/C (compound 0.0316 µM): 102% (2×) and 107% and 101%
- viability, T/C (compound 0.1 µM): 98.6% [middle of 4 runs]
- viability, T/C (compound 0.316 µM): 105% and 98.1% and 104% (2×)
- viability, T/C (compound 1 µM): 104% [middle of 4 runs]
- viability, T/C (compound 3.16 µM): 96% [middle of 4 runs]
- IC50 (curve of compound): > 10 µM

SMILES: Cc1nc(N2CCC3(CC2)COC(C)C3N)c(CO)nc1Sc1ccnc(N)c1Cl (stereo unspecified)
- viability, T/C (compound 0.0316 µM): 108% [middle of 4 runs]
- viability, T/C (compound 0.1 µM): 106% (3×) and 107%
- viability, T/C (compound 0.316 µM): 102% [middle of 4 runs]
- IC50 (curve of compound): > 10 µM

SMILES: Nc1ccn(C2OC(CO)C(O)C2(F)F)c(=O)n1 (stereo unspecified)
- viability, T/C (compound 0.00316 µM): 101% [middle of 4 runs]
- viability, T/C (compound 0.0316 µM): 13.5% [middle of 4 runs]
- viability, T/C (compound 0.1 µM): 9.12% [middle of 4 runs]
- viability, T/C (compound 0.316 µM): 9.08% [middle of 4 runs]
- viability, T/C (compound 1 µM): 8.33% [middle of 4 runs]

SMILES: O=C(c1ccc(F)c(F)c1Nc1ccc(I)cc1F)N1CC(O)([C@@H]2CCCCN2)C1
- viability, T/C (compound 0.00316 µM): 102% [middle of 4 runs]
- viability, T/C (compound 0.01 µM): 105% (2×) and 96.9% and 97.5%
- viability, T/C (compound 0.0316 µM): 102% [middle of 4 runs]
